The values below come from US12195490B2, “STRAD-binding agents and uses thereof” (The Regents of the University of California, priority 2020, dated 2025).

The test system of the assay is ACHN cell line. Description: drug screen of the SelleckChem kinase inhibitor library with and without 5 uM SU-329, Cell-Titer Glo after 5 days. Particulars: kinase inhibitor at 200 nM with and without 5 uM SU329; ACHN cell line; 5 days; Cell-Titer Glo. The assay is classed as cell-based.

With `Nc1cc(C(F)(F)F)c(-c2cc(N3CCOCC3)nc(N3CCOCC3)n2)cn1` [Buparlisib (BKM120, NVP-BKM120)], the log2fc was −1.183.

`FC(F)(F)c1ccc(/C=C/c2nc(COc3ccc(CCCCn4ccnn4)cc3)co2)cc1` [Mubritinib (TAK 165)]: the log2fc was 0.225.

In the case of `Cc1ccc(Nc2nccc(N(C)c3ccc4c(C)n(C)nc4c3)n2)cc1S(N)(=O)=O.Cl` [Pazopanib HCl (GW786034 HCl)], the log2fc came out at 0.1817.

As for `CNC(=O)CN1CCC(Oc2cc3c(Nc4cccc(Cl)c4F)ncnc3cc2OC)CC1` [Sapitinib (AZD8931), AZD8931, reference compound], the log2fc came out at 0.358.

Take `COc1ccc(COc2cc3oc(=O)c4cc(C(C)O)ccc4c3cc2OC)cc1` (stereo not shown) [Palomid 529 (P529)]: the log2fc was 0.3192.

Regarding `C=CC(=O)Nc1cccc(Sc2nc(Nc3ccc(N4CCN(C)CC4)cc3)ncc2Cl)c1` [WZ8040, reference compound], the log2fc is reported as 0.02092.

For the compound `Nc1ccc(-c2ccc3ncc4ccc(=O)n(-c5cccc(C(F)(F)F)c5)c4c3c2)cn1` [Torin 2], the log2fc is listed as 1.267.

Compound `CNC(=O)c1nn(C)c2c1C(C)(C)Cc1cnc(Nc3ccc(N4CCN(C)CC4)cc3)nc1-2` [Milciclib (PHA-848125)] gave a log2fc of 0.9986.

Take `Cc1cc(N2CCOCC2)cc2[nH]c(-c3c(NC[C@@H](O)c4cccc(Cl)c4)cc[nH]c3=O)nc12` [BMS-536924]: the log2fc came to 0.4161.

Take `Cn1cnc(N)c2ncnc1-2` [3-Methyladenine (3-MA)]: the log2fc was 0.3232.

Regarding `FC(F)c1nc2ccccc2n1-c1nc(N2CCOCC2)nc(N2CCOCC2)n1` [ZSTK474], the log2fc is reported as −0.8509.

For `C=CCc1ccc(O)c(-c2ccc(O)c(CC=C)c2)c1` [Honokiol], the log2fc amounted to 0.09484.

With `O=C1Nc2ccc(I)cc2/C1=C/c1cc(Br)c(O)c(Br)c1` [GW5074], the log2fc was determined as 0.4071.

As to `Cc1ccccc1-n1c(Cn2ncc3c(N)ncnc32)nc2cccc(C)c2c1=O` [PIK-293], the log2fc is on record as 0.1249.

`Nc1cccc(-c2cc3c(Oc4cccc(O)c4)ncnc3[nH]2)c1` [TWS119]: the log2fc is 0.52.

With `CC(C)c1cnn2c(NCc3ccccc3)cc(NCCCCCCN)nc12.Cl` [BS-181 HCl], the log2fc is listed as 0.09476.

In the case of `CNC(=O)c1cc(Oc2ccc(NC(=O)Nc3cc(C(C)(C)C)nn3-c3ccc4ncccc4c3)c(F)c2)ccn1` [Rebastinib (DCC-2036)], the log2fc is reported as 0.007715.

Regarding `O=C(NCc1cccc(O)c1)Nc1nc(-c2ccncc2)cs1` [RKI-1447], the log2fc was −0.8453.

`O=c1sn(-c2cccc3ccccc23)c(=O)n1Cc1ccccc1` [Tideglusib] gave a log2fc of −0.007073.

`COc1cc2c(Oc3ccc(NC(=O)C4(C(=O)Nc5ccc(F)cc5)CC4)cc3F)ccnc2cc1OCCCN1CCOCC1` [Foretinib (GSK1363089)] gave a log2fc of −0.1359.

For the compound `CC(C)(C)n1nc(-c2ccc(Cl)cc2)c2c(N)ncnc21` [PP2], the log2fc is on record as −0.01088.

Compound `CNC(=O)c1cccc(-c2ccc3c(N4CCOC[C@@H]4C)nc(N4CCOC[C@@H]4C)nc3n2)c1` [Vistusertib (AZD2014)] gave a log2fc of −0.8127.

In turn, `CCC[C@H](NC(=O)/C(C#N)=C/c1cccc(Br)n1)c1ccccc1` [Degrasyn (WP1130)] yielded a log2fc of −0.132.

`CCOc1cc2ncc(C#N)c(Nc3ccc(F)c(Cl)c3)c2cc1NC(=O)/C=C/CN(C)C` [Pelitinib (EKB-569)] came in with a log2fc of 0.96.

`CCN(CCO)CCCOc1ccc2c(Nc3cc(CC(=O)Nc4cccc(F)c4)[nH]n3)ncnc2c1` [Barasertib (AZD1152-HQPA)] gave a log2fc of 0.7387.

With `CCc1cc(Nc2nccc(-c3c(-c4ccc(OC)c(C(=O)Nc5c(F)cccc5F)c4)nc4ccccn34)n2)c(OC)cc1N1CCC(N2CCN(S(C)(=O)=O)CC2)CC1` [GSK1904529A], the log2fc turned out to be 0.6211.

On to `c1cncc(CN2CCC(n3ncc4c(N5CCOCC5)nc(-c5ccc6[nH]ccc6c5)nc43)CC2)c1` [WAY-600], for which the log2fc was −1.322.

Regarding `Oc1ccc2ccccc2c1SSc1c(O)ccc2ccccc12` [IPA-3], the log2fc is 0.5168.

Compound `CCCCOc1c(C(=O)c2c(F)cc(C)cc2F)c[nH]c2nncc1-2` [BMS-265246] came in with a log2fc of −0.1077.

`Cc1cc(Nc2ncc(Cl)c(Nc3ccccc3S(=O)(=O)C(C)C)n2)c(OC(C)C)cc1C1CCNCC1` [Ceritinib (LDK378)] had a log2fc of 0.2988.

As for `Cc1c(NC(=O)OC[C@@H]2COCCN2)cn2ncnc(Nc3ccc4c(cnn4Cc4cccc(F)c4)c3)c12` [AC480 (BMS-599626)], the log2fc is 0.6806.

`Nc1nccc(Oc2ccc(NC(=O)c3c[nH]cc(-c4ccc(F)cc4)c3=O)cc2F)c1Cl` [BMS-794833] yielded a log2fc of −0.04405.

PF-477736: the log2fc is −2.035.

The compound `CSc1cccc(Nc2ncc3cc(-c4c(Cl)cccc4Cl)c(=O)n(C)c3n2)c1` [PD173955] gave a log2fc of −0.1932.

The compound `N#CCNC(=O)c1ccc(-c2ccnc(Nc3ccc(N4CCOCC4)cc3)n2)cc1` [Momelotinib (CYT387)] had a log2fc of −1.441.

Compound `Cc1cc(Nc2cc(CN3CCOCC3)c3nc(C)c(Cc4ccc(Cl)cc4F)n3n2)n[nH]1` [Gandotinib (LY2784544)] gave a log2fc of 1.04.

Regarding `CC[C@H](Nc1ncnc2[nH]cnc12)c1nc2cccc(F)c2c(=O)n1-c1ccccc1` [Idelalisib (CAL-101, GS-1101)], the log2fc is on record as 0.09838.

On to `COc1ccc(S(=O)(=O)N(C(C)=O)c2ccccc2/C=C/c2cc[n+]([O-])cc2)cc1` [HMN-214], for which the log2fc came to 0.2477.

Take `C#Cc1cccc(Nc2ncnc3cc(OCCOC)c(OCCO)cc23)c1.Cl` [OSI-420, desmethyl erlotinib, reference compound]: the log2fc is given as −0.04846.

On to `COc1cc(Nc2ncc(F)c(Nc3ccc4c(n3)NC(=O)C(C)(C)O4)n2)cc(OC)c1OC` [R406 (free base)], for which the log2fc was 0.8334.

As for `CCOc1cc(C(=O)N2CCC(N3CCN(C)CC3)CC2)ccc1Nc1ncc2c(n1)N(C1CCCC1)c1ccccc1C(=O)N2C` [ERK5-IN-1], the log2fc worked out at 0.1031.

With GZD824 Dimesylate, the log2fc was 1.434.

`COc1cc(N2CCC(N)CC2)ccc1Nc1ncc(Cl)c(-c2c[nH]c3ccccc23)n1` [AZD3463] displayed a log2fc of −0.06328.

For the compound `COc1ccc(-c2cc3c(C)nc(N)nc3n([C@H]3CC[C@H](OCCO)CC3)c2=O)cn1` [PF-04691502], the log2fc is on record as −0.5101.

`Cn1c(Nc2ccc(C(F)(F)F)cc2)nc2cc(Oc3ccnc(-c4ncc(C(F)(F)F)[nH]4)c3)ccc21` [RAF265 (CHIR-265)] had a log2fc of 0.9001.

Turning to `Cc1ccc(F)c(NC(=O)Nc2ccc(-c3cccc4[nH]nc(N)c34)cc2)c1` [Linifanib (ABT-869)], the log2fc is recorded as −0.2483.

`CC(C)n1nc(-c2cc3cc(O)ccc3[nH]2)c2c(N)ncnc21` [Torkinib (PP242)] registered a log2fc of −0.3157.

`Cl.Cl.NC1(c2ccc(-c3nc4ccn5c(=O)[nH]nc5c4cc3-c3ccccc3)cc2)CCC1` [MK-2206 2HCl] showed a log2fc of −0.1575.

Consider `Cn1cc(-c2ccc3ncc(Cc4ccc5ncccc5c4)n3n2)cn1` [NVP-BVU972], for which the log2fc amounted to 0.5846.
